{
  "source": "patent US9855277B2",
  "about": "“Use of 5H-dibenz/b,f/azepine-5-carboxamide derivatives for treating fibromyalgia” (BIAL—PORTELA & CA, S.A., priority 2009, dated 2018)",
  "assay_type_in_all_cases": "in vivo",
  "key": {"[1]": {"system": "Mice (NMRI)", "assay": "Formalin paw test", "details": "300 mg/kg p.o.", "protocol": "The method, which detects analgesic activity, follows that described by Wheeler-Aceto et al (see […]-ACETO, H. & A., C. (1991), “Standardization of the rat paw formalin test for the evaluation of analgesics”, Psychopharmacology, 104, 35-44). Mice (NMRI) were given an intraplantar injection of 5% formalin (25 μl) into the posterior left paw. […] The time spent licking was counted for 15 minutes, beginning 15 minutes after injection of formalin. 10 mice were studied per group. The test was performed blind. ESL and carbamazepine (CBZ) were tested at the doses of 10, 30, 100 and 300 mg/kg p.o., and oxcarbazepine (OXC) and R-Lic were tested at the doses of 100 and 300 mg/kg p.o., administered 60 minutes before the test (i.e. 45 minutes before formalin), and compared with a vehicle control group in each experiment. Morphine (64 mg/kg p.o.), administered under the same experimental conditions, was used as reference substance."}, "[2]": {"assay": "Plasma bioanalysis in CCI mice after oral ESL", "details": "oral ESL 50-200 mg/kg"}, "[3]": {"system": "mice with chronic constriction nerve injury (CCI)", "assay": "Paw withdrawal threshold (von Frey filaments) in CCI mice", "details": "gabapentin 100 mg/kg p.o.", "protocol": "The materials used were (as also indicated in FIGS. 1 and 2): • Vehicle: 0.5% hydroxy-propyl-methyl-cellulose (HPMC) in water, 5 ml/kg, p.o.; • 50 mg/kg, 100 mg/kg, 150 mg/kg and 200 mg/kg: ESL at 50, 100, 150 and 200 mg/kg, p.o.; • GP 100 mg/kg: gabapentin 100 mg/kg, p.o.\nThe potential analgesic effects of orally dosed ESL was investigated at doses of 50, 100, 150 and 200 mg/kg, on the paw withdrawal threshold (PWT) and these effects compared with those of the dose vehicle and gabapentin, the latter at 100 mg/kg, in a mouse model of chronic constriction nerve injury (CCI).\nEach animal received a single oral dose of either ESL (50, 100, 150, or 200 mg/kg), or gabapentin (100 mg/kg in saline) or vehicle (5 ml/kg). Behavioural testing was then performed twice, at approximately 60 and 120 minutes post-dose, to investigate the effect of treatments."}},
  "data": [
    {"smiles": "NC(=O)N1c2ccccc2C=Cc2ccccc21", "note": "[CBZ, carbamazepine, reference compound]", "values": [
      {"measurement": "licking in the formalin test at 300 mg/kg", "setting": "[1]", "value": "abolished licking"}
    ]},
    {"smiles": "NC(=O)N1c2ccccc2C[C@H](O)c2ccccc21", "note": "[eslicarbazepine]", "values": [
      {"measurement": "plasma concentrations vs dose of ESL", "setting": "[2]", "value": "positively correlated with the doses of ESL administered"}
    ]},
    {"smiles": "NCC1(CC(=O)O)CCCCC1", "note": "[gabapentin, reference compound]", "values": [
      {"measurement": "PWT in the contralateral limbs vs vehicle group", "setting": "[3]; 2 hour after dosing, P<0.05", "value": "significantly higher"},
      {"measurement": "PWT", "setting": "[3]; positive control", "value": "significantly increased PWT"}
    ]}
  ]
}
